# Laboratory results published in patent US7550456B2, “Substituted aryl cycloalkanoyl derivatives and methods of their use” (Wyeth, priority 2003, dated 2009).
# Structures can show the parent of a compound that is named as a salt.
# Target: T1, human hNET (Homo sapiens, UniProt P23975)
# T1 construct: expressed in transfected cells; host or cells: MDCK-Net6 (MDCK cells, stably transfected)
# Assay: Norepinephrine (NE) uptake assay in MDCK-Net6 cells
# Format: cell-based
# Conditions: 1 μM test compound, [3H]NE uptake, read-out: % Inhibition @ 1 μM (hNET)
# How it was run: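 Radiolabelled NE uptake was counted by scintillation after NaOH lysis, with 1 µM desipramine defining non-specific uptake. EC50 came from a logistic dose-response fit.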
# T1 sequence (P23975 whole entry): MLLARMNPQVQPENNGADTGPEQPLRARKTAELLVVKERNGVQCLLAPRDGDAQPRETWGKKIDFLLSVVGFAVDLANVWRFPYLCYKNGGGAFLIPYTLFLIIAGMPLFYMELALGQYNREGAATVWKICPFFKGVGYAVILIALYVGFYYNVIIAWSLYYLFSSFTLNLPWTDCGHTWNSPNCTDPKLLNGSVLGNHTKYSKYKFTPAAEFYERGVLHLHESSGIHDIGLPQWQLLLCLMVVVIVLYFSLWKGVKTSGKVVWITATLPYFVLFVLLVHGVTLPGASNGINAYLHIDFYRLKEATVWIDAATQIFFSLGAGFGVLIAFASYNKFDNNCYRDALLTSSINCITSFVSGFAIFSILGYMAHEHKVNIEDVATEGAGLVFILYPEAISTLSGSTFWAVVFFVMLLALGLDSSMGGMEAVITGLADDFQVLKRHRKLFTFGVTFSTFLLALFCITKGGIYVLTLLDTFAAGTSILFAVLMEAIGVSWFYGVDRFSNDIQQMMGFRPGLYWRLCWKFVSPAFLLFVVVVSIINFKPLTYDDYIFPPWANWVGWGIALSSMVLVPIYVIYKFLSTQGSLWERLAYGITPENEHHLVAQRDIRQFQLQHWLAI
row,SMILES,inhibition at 1 µM
1,"N#Cc1cc(C(CN2CCNCC2)C2(O)CCCCC2)ccc1OCc1ccccc1 (stereo not drawn) [Example 266, 2-(benzyloxy)-5-[1-(1-hydroxycyclohexyl)-2-piperazin-1-ylethyl]benzonitrile dihydrochloride]",91%
2,"C=Cc1ccc(C(CN2CCNCC2)C2(O)CCCCC2)cc1 (stereo not drawn) [Example 163, 1-[2-piperazin-1-yl-1-(4-vinylphenyl)ethyl]cyclohexanol dihydrochloride]",17%
3,"OC1(C(CN2CCNCC2)c2ccccc2-c2cccc(Cl)c2)CCCCC1 (stereo not drawn) [Example 150, 1-[1-(3′-chloro-1,1′-biphenyl-2-yl)-2-piperazin-1-ylethyl]cyclohexanol dihydrochloride]",18%
4,"OC1(C(CN2CCNCC2)c2cc(Br)c(OCc3ccccc3)c(Br)c2)CCCCC1 (stereo not drawn) [Example 392, 1-{1-[4-(benzyloxy)-3,5-dibromophenyl]-2-piperazin-1-ylethyl}cyclohexanol dihydrochloride]",68%
5,"C[C@@H]1CN(C[C@H](c2cccc(OC(F)(F)F)c2)C2(O)CCCCC2)CCN1C [Example 370, 1-{(1S)-2-[(3R)-3,4-dimethylpiperazin-1-yl]-1-[3-(trifluoromethoxy)phenyl]ethyl}cyclohexanol dihydrochloride]",79%
6,"C[C@H]1CN(C[C@H](c2cccc(OC(F)(F)F)c2)C2(O)CCCCC2)CCN1 [Example 348, 1-{(1S)-2-[(3S)-3-methylpiperazin-1-yl]-1-[3-(trifluoromethoxy)phenyl]ethyl}cyclohexanol dihydrochloride]",91%
7,"CN1CCN(CC(c2cc(Br)c(OCc3ccccc3)c(Br)c2)C2(O)CCCCC2)CC1 (stereo not drawn) [Example 393, 1-[1-[4-(benzyloxy)-3,5-dibromophenyl]-2-(4-methylpiperazin-1-yl)ethyl]cyclohexanol dihydrochloride]",59%
8,"COc1ccc(-c2cccc(C(CN3CCNCC3)C3(O)CCCCC3)c2)cc1OC (stereo not drawn) [Example 250, 1-[1-(3′,4′-dimethoxy-1,1′-biphenyl-3-yl)-2-piperazin-1-ylethyl]cyclohexanol dihydrochloride]",15%
9,"CN1CCN(CC(c2ccc(-c3cc(Cl)cc(Cl)c3)cc2)C2(O)CCC2)CC1 (stereo not drawn) [Example 297, 1-[1-(3′,5′-dichloro-1,1′-biphenyl-4-yl)-2-(4-methylpiperazin-1-yl)ethyl]cyclobutanol dihydrochloride]",4%
10,"CN1CCN(CC(c2cccc(C#N)c2)C2(O)CCCCC2)CC1 (stereo not drawn) [Example 161, 1-[1-(3-cyanophenyl)-2-(4-methylpiperazin-1-yl)ethyl]cyclohexanol dihydrochloride]",70%

# Now from value to molecule:
row,inhibition at 1 µM,SMILES
1,14%,"C[C@H](Oc1ccc(C(CN2CCN(C)CC2)C2(O)CCCCC2)cc1)c1ccccc1 (stereo partly drawn) [Example 470, 1-(2-(4-methylpiperazin-1-yl)-1-{4-[(1S)-1-phenylethoxy]phenyl}ethyl)cyclohexanol dihydrochloride]"
2,71%,"Cc1ccc(COc2ccc(C(CN3CCN(C)CC3)C3(O)CCCCC3)cc2F)cc1 (stereo not drawn) [Example 418, 1-[1-(3-fluoro-4-{[4-(methyl)benzyl]oxy}phenyl)-2-(4-methylpiperazin-1-yl)ethyl]cyclohexanol dihydrochloride]"
3,78%,"COc1cc(C(CN2CCNCC2)C2(O)CCCCC2)ccc1OCc1ccc(C(F)(F)F)cc1 (stereo not drawn) [Example 448, 1-[1-(3-methoxy-4-{[4-(trifluoromethyl)benzyl]oxy}phenyl)-2-piperazin-1-ylethyl]cyclohexanol dihydrochloride]"
4,90%,"COc1cc(C(CN2CCN(C)CC2)C2(O)CCCCC2)ccc1OCc1ccccc1 (stereo not drawn) [Example 443, 1-[1-[4-(benzyloxy)-3-methoxyphenyl]-2-(4-methylpiperazin-1-yl)ethyl]cyclohexanol dihydrochloride]"

# Same assay, conditions: MDCK-Net6, read-out: % Inhibition @ 1 μM (hNET), 1 μM test compound, [3H]NE uptake
row,SMILES,inhibition at 1 µM
1,"OC1(C(CN2CCNCC2)c2cccc(-c3ccccc3F)c2)CCCCC1 (stereo not drawn) [Example 140, 1-[1-(2′-fluoro-1,1′-biphenyl-3-yl)-2-piperazin-1-ylethyl]cyclohexanol maleate]",52%

# Same assay, conditions: [3H]NE uptake, test range 1 to 10,000 nM
row,EC50,SMILES
1,138 nM,"CN1CCN(C[C@@H](c2ccc(OCc3ccccc3)cc2)C2(O)CCCCC2)CC1 [Example 412, 1-[(2R)-1-[4-(benzyloxy)phenyl]-2-(4-methylpiperazin-1-yl)ethyl]cyclohexanol dihydrochloride]"
2,220 nM,"CN1CCN(CC(c2cccc(C#N)c2)C2(O)CCCCC2)CC1 (stereo not drawn) [Example 161, 1-[1-(3-cyanophenyl)-2-(4-methylpiperazin-1-yl)ethyl]cyclohexanol dihydrochloride]"

row,SMILES,EC50
1,"OC1(C(CN2CCNCC2)c2cccc(-c3ccccc3F)c2)CCCCC1 (stereo not drawn) [Example 140, 1-[1-(2′-fluoro-1,1′-biphenyl-3-yl)-2-piperazin-1-ylethyl]cyclohexanol maleate]",870 nM
